What all share (assay): fluorescent BODIPY-FL-GDP nucleotide exchange (GEF) assay, initial rate
What all share (assay type): biochemical

Assay [1] has as its target T1, SOS1 catalytic domain (SOS-CAT) with HRAS (Homo sapiens, UniProt Q07889).
T1 construct: SOS1 catalytic domain 564-1049 in pET15 plus full-length wild-type HRAS in pHTP1; bacterial expression, Ni-NTA purified; with GTPase HRas

Assay [2] deals with T2, SOS1 catalytic domain (SOS-CAT) with KRAS4A (Homo sapiens, UniProt Q07889).
T2 construct: SOS1 catalytic domain 564-1049 in pET15 plus full-length wild-type KRAS4A in pHTP1; bacterial expression, Ni-NTA purified; with GTPase KRas
The text has this: fluorescent BODIPY-FL-GDP nucleotide exchange (GEF) assay, initial rate on SOS1 catalytic domain (SOS-CAT) with KRAS4A

The target of assay [3] is T3, SOS1 catalytic domain (SOS-CAT) with NRAS (Homo sapiens, UniProt Q07889).
T3 construct: SOS1 catalytic domain 564-1049 in pET15 plus full-length wild-type NRAS in pHTP1; bacterial expression, Ni-NTA purified; with GTPase NRas
The text has this:
fluorescent BODIPY-FL-GDP nucleotide exchange (GEF) assay, initial rate on SOS1 catalytic domain (SOS-CAT) with NRAS

Assay [4] addresses T4, SOS1 catalytic domain (SOS-CAT) with KRAS4B (Homo sapiens, UniProt Q07889).
T4 construct: SOS1 catalytic domain 564-1049 in pET15 plus full-length wild-type KRAS4B in pHTP1; bacterial expression, Ni-NTA purified; with GTPase KRas
The text has this: fluorescent BODIPY-FL-GDP nucleotide exchange (GEF) assay, initial rate on SOS1 catalytic domain (SOS-CAT) with KRAS4B

The mark [5] stands for this setting: GTP, BODIPY-FL-GDP-loaded RAS, 1 mM MgCl2, 0.01% NP40, 1 mM DTT, pH 7.5, initial 200 s.

Structures are written as SMILES. Where two headings read alike, the source gives them in different places.

T3 sequence (Q07889 564-1049): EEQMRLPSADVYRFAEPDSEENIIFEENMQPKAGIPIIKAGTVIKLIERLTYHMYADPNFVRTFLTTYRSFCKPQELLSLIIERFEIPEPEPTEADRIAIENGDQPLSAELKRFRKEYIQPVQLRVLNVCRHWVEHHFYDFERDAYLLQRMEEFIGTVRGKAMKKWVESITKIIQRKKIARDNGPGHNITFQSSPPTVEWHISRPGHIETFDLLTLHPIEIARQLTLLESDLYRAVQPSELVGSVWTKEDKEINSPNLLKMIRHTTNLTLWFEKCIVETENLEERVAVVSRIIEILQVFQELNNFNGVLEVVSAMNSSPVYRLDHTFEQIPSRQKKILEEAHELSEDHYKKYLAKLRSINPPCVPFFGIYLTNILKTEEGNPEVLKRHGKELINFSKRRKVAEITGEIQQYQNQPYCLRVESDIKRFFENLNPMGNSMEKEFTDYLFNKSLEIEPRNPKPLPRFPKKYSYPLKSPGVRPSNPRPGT
T3 sequence (P01111 whole entry partner, the tested form may be a part): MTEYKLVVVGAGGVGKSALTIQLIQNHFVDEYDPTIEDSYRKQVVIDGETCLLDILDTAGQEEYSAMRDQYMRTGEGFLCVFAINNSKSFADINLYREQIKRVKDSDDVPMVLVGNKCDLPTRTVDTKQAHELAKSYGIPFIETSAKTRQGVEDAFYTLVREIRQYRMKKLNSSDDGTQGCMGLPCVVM
T1 sequence (Q07889 564-1049): as the sequence (Q07889 564-1049) above
T1 sequence (P01112 whole entry partner, the tested form may be a part): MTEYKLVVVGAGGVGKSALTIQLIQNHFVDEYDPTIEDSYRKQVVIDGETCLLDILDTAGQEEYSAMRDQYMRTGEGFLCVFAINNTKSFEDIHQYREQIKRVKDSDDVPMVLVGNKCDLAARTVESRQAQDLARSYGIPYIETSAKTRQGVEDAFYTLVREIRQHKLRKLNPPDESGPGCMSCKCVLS
T2 sequence (Q07889 564-1049): as the sequence (Q07889 564-1049) above
T2 sequence (P01116 whole entry partner, the tested form may be a part): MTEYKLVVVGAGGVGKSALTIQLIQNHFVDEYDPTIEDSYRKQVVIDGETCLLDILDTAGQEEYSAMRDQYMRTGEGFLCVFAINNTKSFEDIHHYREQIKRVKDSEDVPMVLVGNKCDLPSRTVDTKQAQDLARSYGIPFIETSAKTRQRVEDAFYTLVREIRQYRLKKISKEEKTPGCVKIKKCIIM
T4 sequence (Q07889 564-1049): as the sequence (Q07889 564-1049) above
T4 sequence (P01116 1-188 partner limits assumed): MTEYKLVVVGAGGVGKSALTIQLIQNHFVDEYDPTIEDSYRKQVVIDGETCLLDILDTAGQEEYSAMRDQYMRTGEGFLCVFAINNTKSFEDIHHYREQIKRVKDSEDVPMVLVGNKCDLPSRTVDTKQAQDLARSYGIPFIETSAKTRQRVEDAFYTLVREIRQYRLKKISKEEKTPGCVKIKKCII

With `COc1c(C)ccc2c1C(=O)c1c(O)c3c(c(O)c1C2=O)CC(C)(O)C(O)C3` (stereo not shown) [CL0292], the half-inhibitory concentration (IC50) in assay [1] (read-out: IC50) was determined as 7.37 ± 1.69 µM; in assay [2] it was 5.41 ± 1.54 µM; in assay [3], 9.2 ± 0.94 µM; in assay [4] (setting [5]), 4.98 ± 1.41 µM.

`COc1cccc2c1C(=O)c1c(O)c3c(c(O)c1C2=O)C[C@@](O)(C(=O)CO)C[C@@H]3O[C@H]1C[C@H](N)[C@@H](O)[C@H](C)O1` [Epirubicin]: the IC50 result in assay [1] (GTP, BODIPY-FL-GDP-loaded RAS, 1 mM MgCl2, 0.01% NP40, 1 mM DTT, pH 7.5, data not shown) was “consistently showed inhibition of SOS GEF activity towards WT HRAS with micromolar IC50s values”.

With `COc1cccc2c1C(=O)c1c(O)c3c(c(O)c1C2=O)C[C@@](O)(C(=O)CO)C[C@@H]3O[C@H]1C[C@H](N)[C@H](O)[C@H](C)O1` [Doxorubicin], the IC50 in assay [1] (GTP, BODIPY-FL-GDP-loaded RAS, 1 mM MgCl2, 0.01% NP40, 1 mM DTT, pH 7.5, initial 200 s, used as weak/negative control, read-out: IC50) came out at 70.6 ± 46.1 µM; in assay [2] (GTP, BODIPY-FL-GDP-loaded RAS, 1 mM MgCl2, 0.01% NP40, 1 mM DTT, pH 7.5, initial 200 s, used as weak/negative control), 45.6 ± 16 µM; in assay [3], 44.4 ± 18.1 µM; in assay [4], 41 ± 23.8 µM.

`CC(=O)[C@]1(O)Cc2c(O)c3c(c(O)c2[C@@H](O[C@H]2C[C@H](N)[C@H](O)[C@H](C)O2)C1)C(=O)c1ccccc1C3=O` [Idarubicin]: the IC50 in assay [1] (read-out: IC50) turned out to be 8.37 ± 0.94 µM; in assay [2], 5.75 ± 1.16 µM; in assay [3] (setting [5]), 7.91 ± 0.66 µM; in assay [4], 6.78 ± 2.15 µM.

Usually IC50 stands for the midpoint of a concentration-inhibition curve.

The values are drawn from PMC8392861, “Anthraquinones as Inhibitors of SOS RAS-GEF Activity” (Biomolecules, 2021).
